Test results: ChEMBL document CHEMBL1201862, “PubChem BioAssay data set” (2004)
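Where inhibition never reached the appropriate level, the endpoint shown equals the highest concentration tested. Otherwise, values were interpolated linearly from a five-concentration, 48-hour dose response in 96-well plates. GI50 is the concentration that inhibits growth by half.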 Calls of active or inactive are those of the source. Rule as the data show it: active = GI50 up to about 1.1 µM and inactive = higher.

Tests used:
Assay in all cases: NCI tumour cell line growth inhibition, 48 h
SNB-75 = system: SNB-75
CCRF-CEM = system: CCRF-CEM
SK-OV-3 = system: SK-OV-3
TK-10 = system: TK-10
HT-29 = system: HT-29
UACC-62 = system: UACC-62
MDA-MB-231 = system: MDA-MB-231
BT-549 = system: BT-549
K562 = system: K562
SNB-19 = system: SNB-19
SF-539 = system: SF-539
HCT-15 = system: HCT-15
MCF7 = system: MCF7
HCT-116 = system: HCT-116
NCI-H23 = system: NCI-H23
MOLT-4 = system: MOLT-4
EKVX = system: EKVX
COLO 205 = system: COLO 205
CAKI-1 = system: CAKI-1
NCI-H226 = system: NCI-H226
IGROV-1 = system: IGROV-1
SF-268 = system: SF-268
RPMI-8226 = system: RPMI-8226
NCI-H460 = system: NCI-H460
LOX IMVI = system: LOX IMVI
HOP-62 = system: HOP-62
SF-295 = system: SF-295
MDA-MB-435 = system: MDA-MB-435
786-0 = system: 786-0
Hs-578T = system: Hs-578T
SW-620 = system: SW-620
HCC 2998 = system: HCC 2998
HL-60 = system: HL-60
SR = system: SR
NCI/ADR-RES = system: NCI/ADR-RES
U-251 = system: U-251
UACC-257 = system: UACC-257
SK-MEL-5 = system: SK-MEL-5
OVCAR-4 = system: OVCAR-4
HOP-92 = system: HOP-92
ACHN = system: ACHN
SK-MEL-28 = system: SK-MEL-28
SK-MEL-2 = system: SK-MEL-2
M14 = system: M14
T47D = system: T47D
KM12 = system: KM12
RXF 393 = system: RXF 393
OVCAR-8 = system: OVCAR-8
A498 = system: A498
PC-3 = system: PC-3
MDA-N = system: MDA-N
OVCAR-3 = system: OVCAR-3
DU-145 = system: DU-145
NCI-H522 = system: NCI-H522
A549 = system: A549
SN12C = system: SN12C
Malme-3M = system: Malme-3M
OVCAR-5 = system: OVCAR-5

SMILES: C[C@@H]1O[C@@H](O[C@H]2C[C@@H](O)[C@]3(CO)[C@H]4[C@H](O)C[C@]5(C)[C@@H](C6=CC(=O)OC6)CC[C@]5(O)[C@@H]4CC[C@]3(O)C2)[C@H](O)[C@H](O)[C@H]1O [OUABAIN]
- GI50 (SNB-75): 0.0162 µM (active)
- GI50 (CCRF-CEM): 21.1 µM (inactive)

SMILES: CC1=NN(c2nc(N)nc(CSc3nc4n(c(=S)n3)CCN4)n2)C(C)(C)C1
- GI50 (SK-OV-3): 19.1 µM (inactive)
- GI50 (TK-10): 74.1 µM (inactive)
- GI50 (HT-29): > 100 µM (inactive)
- GI50 (UACC-62): 43.1 µM (inactive)
- GI50 (MDA-MB-231): 29.6 µM (inactive)
- GI50 (BT-549): > 100 µM (inactive)
- GI50 (K562): > 100 µM (inactive)
- GI50 (SNB-19): 37.9 µM (inactive)
- GI50 (SF-539): 44.8 µM (inactive)
- GI50 (HCT-15): 32 µM
- GI50 (MCF7): 51.5 µM (inactive)
- GI50 (HCT-116): > 100 µM (inactive)
- GI50 (NCI-H23): 47.5 µM (inactive)
- GI50 (MOLT-4): > 100 µM (inactive)
- GI50 (EKVX): 27.4 µM (inactive)
- GI50 (COLO 205): 38.5 µM (inactive)
- GI50 (CAKI-1): 25.2 µM (inactive)
- GI50 (SNB-75): 15.3 µM (inactive)
- GI50 (NCI-H226): 15 µM (inactive)
- GI50 (IGROV-1): 15.1 µM (inactive)
- GI50 (SF-268): 15.3 µM (inactive)
- GI50 (RPMI-8226): > 100 µM (inactive)
- GI50 (NCI-H460): > 100 µM (inactive)
- GI50 (LOX IMVI): 43.6 µM (inactive)
- GI50 (HOP-62): 14 µM (inactive)
- GI50 (SF-295): 22.9 µM (inactive)
- GI50 (MDA-MB-435): > 100 µM (inactive)
- GI50 (786-0): 93.5 µM (inactive)
- GI50 (Hs-578T): 15.6 µM (inactive)
- GI50 (SW-620): > 100 µM (inactive)
- GI50 (HCC 2998): > 100 µM (inactive)
- GI50 (HL-60): > 100 µM (inactive)
- GI50 (SR): > 100 µM (inactive)
- GI50 (NCI/ADR-RES): 30.1 µM (inactive)
- GI50 (U-251): 37.9 µM (inactive)
- GI50 (UACC-257): > 100 µM (inactive)
- GI50 (SK-MEL-5): > 100 µM (inactive)
- GI50 (OVCAR-4): > 100 µM (inactive)
- GI50 (HOP-92): 18.6 µM (inactive)
- GI50 (ACHN): 44.9 µM (inactive)
- GI50 (SK-MEL-28): > 100 µM (inactive)
- GI50 (SK-MEL-2): 16.8 µM (inactive)
- GI50 (M14): 67.9 µM (inactive)
- GI50 (T47D): 21.7 µM (inactive)
- GI50 (KM12): > 100 µM (inactive)
- GI50 (RXF 393): 15.6 µM (inactive)
- GI50 (OVCAR-8): 18.3 µM (inactive)
- GI50 (CCRF-CEM): > 100 µM (inactive)
- GI50 (A498): 39.7 µM (inactive)
- GI50 (PC-3): 30.1 µM (inactive)

SMILES: CC1(C)CCOC(=O)C(Cl)CC1Cl (stereo unspecified)
- GI50 (SK-OV-3): > 100 µM (inactive)
- GI50 (TK-10): > 100 µM (inactive)
- GI50 (HT-29): > 100 µM (inactive)
- GI50 (UACC-62): > 100 µM (inactive)
- GI50 (MDA-MB-231): > 100 µM (inactive)
- GI50 (K562): > 100 µM (inactive)
- GI50 (MDA-N): > 100 µM (inactive)
- GI50 (SNB-19): > 100 µM (inactive)
- GI50 (SF-539): > 100 µM (inactive)
- GI50 (OVCAR-3): > 100 µM (inactive)
- GI50 (DU-145): > 100 µM (inactive)
- GI50 (HCT-15): > 100 µM
- GI50 (MCF7): > 100 µM (inactive)
- GI50 (HCT-116): > 100 µM (inactive)
- GI50 (NCI-H23): > 100 µM (inactive)
- GI50 (MOLT-4): > 100 µM (inactive)
- GI50 (EKVX): > 100 µM (inactive)
- GI50 (COLO 205): > 100 µM (inactive)
- GI50 (CAKI-1): > 100 µM (inactive)
- GI50 (NCI-H226): > 100 µM (inactive)
- GI50 (IGROV-1): > 100 µM (inactive)
- GI50 (SF-268): > 100 µM (inactive)
- GI50 (NCI-H460): > 100 µM (inactive)
- GI50 (LOX IMVI): > 100 µM (inactive)
- GI50 (HOP-62): > 100 µM (inactive)
- GI50 (SF-295): > 100 µM (inactive)
- GI50 (MDA-MB-435): > 100 µM (inactive)
- GI50 (786-0): > 100 µM (inactive)
- GI50 (Hs-578T): > 100 µM (inactive)
- GI50 (SW-620): > 100 µM (inactive)
- GI50 (HCC 2998): > 100 µM (inactive)
- GI50 (SR): > 100 µM (inactive)
- GI50 (NCI/ADR-RES): > 100 µM (inactive)
- GI50 (U-251): > 100 µM (inactive)
- GI50 (UACC-257): > 100 µM (inactive)
- GI50 (SK-MEL-5): > 100 µM (inactive)
- GI50 (OVCAR-4): > 100 µM (inactive)
- GI50 (NCI-H522): > 100 µM (inactive)
- GI50 (ACHN): > 100 µM (inactive)
- GI50 (SK-MEL-28): > 100 µM (inactive)
- GI50 (A549): > 100 µM (inactive)
- GI50 (SK-MEL-2): > 100 µM (inactive)
- GI50 (M14): > 100 µM (inactive)
- GI50 (SN12C): > 100 µM (inactive)
- GI50 (T47D): > 100 µM (inactive)
- GI50 (Malme-3M): > 100 µM (inactive)
- GI50 (OVCAR-5): > 100 µM (inactive)
- GI50 (KM12): > 100 µM (inactive)
- GI50 (RXF 393): > 100 µM (inactive)
- GI50 (OVCAR-8): > 100 µM (inactive)
- GI50 (CCRF-CEM): > 100 µM (inactive)
- GI50 (A498): > 100 µM (inactive)
- GI50 (PC-3): > 100 µM (inactive)

SMILES: C[C@H](CCC(=O)O)[C@H]1CC[C@H]2[C@@H]3CC[C@@H]4C[C@H](O)CC[C@]4(C)[C@H]3CC[C@]12C [LITHOCHOLIC ACID]
- GI50 (A498): > 100 µM (inactive)
